Results reported in patent US9949486B2, “Agrochemical composition comprising a N,N#-disubstituted (thio)urea for the improvement of crop productivity” (Crop Intellect Ltd., priority 2014, dated 2018).

Tests used:
Type in all cases: in vivo
[1] = tested on: Tomatoes; experiment: Tomatoes trial under glass, foliar treatment; conditions: equivalent of 5 lt/ha
Procedure: (§1) Lettuce, beans, wheat and tomatoes were selected as plants to test the efficacy of the invention. Short term crops were grown in the greenhouse to ensure controlled condition and long term crops were grown outdoors in replicated trials. All relevant parameters to evaluate efficacy were tested including chlorophyll content, sugar levels, Mg and Fe tissue content, yield and quality characteristics. All trials were performed to good experimental practice (GEP) standards with adequate replication to conform to statistical comparisons. Environmental condition were monitored and kept the same between treatments for evaluation. John Innes soil based compost with low nutrient contents was used for the experiments and sieved to ensure uniformity. The applications were made to be applied at the equivalent of 5 lt/ha of end product in 180 lt of water. Treatments were administered foliarly just before runoff point. The magnesium and iron were in the form of Sulphate.
The trial on tomatoes under glass had shown a significant increase in yield and quality characteristics with the application of the present invention. […] The internode length reduced on average by 20% which is desirable for tomato plants grown under glass due to the infrastructure restrictions and efforts towards vegetative growth.

[2] = tested on: Beans; experiment: Beans greenhouse trial, foliar treatment; conditions: equivalent of 5 lt/ha
Procedure: as §1, with “Sulphate. […] Larger plants expressed as weight per plant was observed together with an increase in chlorophyll content, Mg and Fe content in the plant tissue and leaf diameter (which promotes resource capture). A reduction in internode length was also observed which is favourable for many greenhouse and outdoor vegetable crops.” for “Sulphate.”

[3] = tested on: Lettuce; experiment: Lettuce greenhouse trial, foliar treatment
Procedure: as §1

[4] = lettuce, foliar, equivalent of 5 lt/ha

Structure (SMILES): O=C(Nc1ccccc1)Nc1ccccc1 [DPU, 1,3-diphenylurea]
- Yield ([1]; average fruit fresh weight): 132 g
- Chlorophyll (mg/cm^2) [1]: 0.031 mg/cm^2
- Firmness (turgor MPa) [1]: 0.08 MPa
- Internode length [1]: 8.1
- Sugar level (%) [1]: 6.8%
- Fe content ([2]; beans plant tissue): 86 mg/kg
- Mg content (%) ([2]; beans plant tissue): 0.42%
- Chlorophyll (mg/cm^2) ([2]; beans): 0.025 mg/cm^2
- Internode length ([2]; beans): 7
- Leaf diameter (cm) ([2]; beans): 7.8 cm
- Yield ([2]; beans, fresh weight of above ground plant at 6 wks (st. error ±10)): 364 g
- Yield ([3]; lettuce fresh weight (yield st. error ±8), foliar, equivalent of 5 lt/ha of end product in 180 lt of water): 213 g
- Fe content (mg/kg dw) ([3]; lettuce tissue, dry weight, foliar, equivalent of 5 lt/ha): 254 mg/kg dw
- Mg content (mg/kg fw) ([3]; lettuce tissue, fresh weight, foliar, equivalent of 5 lt/ha): 480 mg/kg fw
- Chlorophyll (mg/cm^2) [3, 4]: 0.029 mg/cm^2
- Leaf number [3, 4]: 28
- Sugar level (%) [3, 4]: 5.5%
- Weight loss (%) ([3]; lettuce, weight loss after 7 days in ambient temperature (indication of shelf life)): 22%
